Test [1] concerns P62 and LC3-II. As to the kind of experiment: Western blot of autophagy markers in CRC cells. Type of test: cell-based, human. The settings on record: HT29, HCT116 and RKO cells; BMX (5 and 10 μM) with or without 50 μM TMZ; FIG. 18A. The protocol:
Western blot analysis was used to examine the indicated protein expression levels under various concentrations of BMX (0-10 μM), and SAHA, VPA or PCI-34051 in the presence or absence of TMZ (50 μM) or OXP (5 μM) of the tested cell lines. SDS-PAGE and Western blot analysis was performed on lysates prepared as outlined previously. The specific primary antibodies against acetyl-histone H3 (Lys9/Lys14), acetyl-histone H4 (Lys8), P53, acetyl-p53 (Lys382), phospho-p53 (Ser15), P21, P16, MGMT, phosphor-H2AX (S139), E2F1, E2F3, Cleaved Caspase-3, Cleaved Caspase-8, Cleaved Caspase-7, Cleaved Caspase-9, PARP, Bax, Bcl-2, Bid, Bim, Bak, Puma, β-catenin, phospho-β-catenin(Ser/33/37/41), GSK3β, phospho-GSK3β (Ser 9), c-Myc, Cyclin D1, P62, LC3B, CD133, CD44, SOX-2 and HDAC8 were used for detection, and GAPDH, α-tubulin or β-actin was used as the internal control. After incubation with the primary antibodies, and then incubated with horseradish peroxidase (HRP)-conjugated secondary antibodies, the HRP signals were detected with a chemical HRP substrate. Signal of each target protein was visualized by incubation with an enhanced chemiluminescent reagent and exposure to X-ray film.

Test [2] concerns HT29 cells. As to the kind of experiment: CRC cell proliferation assay (CCK8), HT29. It is filed as cell-based. The settings on record: Homo sapiens. As for the experimental part: Three CRC cell lines HT29, HCT116 and RKO were used in this study. The American Type Culture Collection (ATCC; Manassas, Va., USA) provided human CRC cell lines HT29 (ATCC HTB-38; mutant TP53, p.R273H; APC frame shift, p. E1554fs; wild type β-catenin), HCT116 (ATCC CCL-247; wild type TP53; wild type APC; deletion β-catenin, p. S45del) and RKO (ATCC CRL-2577; wild type TP53; wild type APC; wild type β-catenin). Three CRC cells lines as listed above were cultured in adherent culture condition, maintained at 37° C. inside the cell incubation containing 5% CO2. The two cell lines of HCT-116 and HT-29 cells were cultured in McCoy's 5A medium with supplemented 10% fetal bovine serum (Gibco; Thermo Fischer Scientific, Grand Island, N.Y., USA)), 1% penicillin and 1% streptomycin. RKO cell was cultured in MEM medium with supplemented 10% FBS, 1% penicillin, 1% streptomycin and 1% sodium pyruvate. The cell cultures were passaged by trypsinization every three days. BM-BMX (BMX), (E)-2-(4-Methoxybenzyloxy)-3-prenyl-4-methoxy-N-hydroxycinamide, was provided by Nature Wise Biotech & Medicals Corporation (Taipei, Taiwan).
We plated 4000 CRC cells per well in 96-well plates and allowed them to adhere overnight. To validate cell line responsiveness to BMX and TMZ monotherapy, the cells were treated with different doses of BMX or TMZ for 24, 48, and 72 hrs. To confirm cell responsiveness to the BMX-TMZ combination, cells were either treated with different doses of TMZ ([…]) with or without BMX (5 μM) for 24, 48, and 72 hrs or with different doses of BMX (0-10 μM) with or without TMZ (50 μM) for 24, 48, and 72 hrs. Following treatment, the absorption value was measured using a CCK8 kit (Targetmol, Shanghai, China) at the indicated time points. The results are reported as the mean±standard deviation of at least three replicates.

For test [3], the target named is T1, HDAC8 (Homo sapiens, UniProt Q9BY41).
T1 sequence (Q9BY41 1-377): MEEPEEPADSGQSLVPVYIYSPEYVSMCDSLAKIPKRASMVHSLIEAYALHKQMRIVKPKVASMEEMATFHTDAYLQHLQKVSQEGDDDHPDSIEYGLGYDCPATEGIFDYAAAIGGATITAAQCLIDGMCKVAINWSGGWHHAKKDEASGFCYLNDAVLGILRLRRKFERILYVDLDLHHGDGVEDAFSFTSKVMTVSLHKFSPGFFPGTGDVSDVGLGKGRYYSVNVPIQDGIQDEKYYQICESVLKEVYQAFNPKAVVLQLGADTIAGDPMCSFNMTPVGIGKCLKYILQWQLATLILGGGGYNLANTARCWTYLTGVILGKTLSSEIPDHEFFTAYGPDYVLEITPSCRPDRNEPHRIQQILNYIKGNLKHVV
The settings on record: statement from literature [22]; cited from earlier work.

Test [4] relates to HCT116 cells. As to the kind of experiment: Clonogenic (colony formation) assay, HCT116. Type of test: cell-based. As to conditions: Homo sapiens, HCT-116, 336 h, 14 days, read-out: IC50 values of TMZ, clonogenic assay. The protocol: For the anchorage-dependent growth assay, 1000 cells were resuspended in the medium and seeded in 6-well plates. […] After 14 days, the media were removed and the cells were washed and fixed with 4% paraformaldehyde for 30 min, and stained with 0.1% crystal violet for 20 min at 25° C. The intensity of crystal violet was quantified by the absorbance of 570 nm after dissolving the stained cells with dimethyl sulfoxide (DMSO). The results are expressed as the average colony±SE from three independent experiments.

The values below come from patent US11980594B2, “Composition and method for treating a drug-resistant cancer” (NOVELWISE PHARMACEUTICAL CORPORATION, priority 2021, dated 2024).

Read-outs that look alike come from different tables or passages of the source. Where only a bound is given, the exact number is not on record here.

The IC50 is the midpoint of a concentration-inhibition curve. Consider `COc1ccc(COc2c(/C=C/C(=O)NO)ccc(OC)c2CC=C(C)C)cc1` [BMX, (E)-2-(4-Methoxybenzyloxy)-3-prenyl-4-methoxy-N-hydroxycinamide], for which the “expression of P62 and LC3-II” value in test [1] is “concentration-dependent increase in the expression of P62 and LC3-II”. Moreover, the IC50 in test [2] (HT-29, 24 h, BMX alone, 24 hrs, read-out: IC50 of BMX) is 42.6 ± 2.4 µM; in test [2] (HT-29, 24 h, TMZ 50 μM combined with different concentrations of BMX, 24 hrs, read-out: IC50 of BMZ), > 10 µM; in test [2] (HT-29, 48 h, BMX alone, 48 hrs, read-out: IC50 of BMX) it was 9.9 ± 0.5 µM; in test [2] (HT-29, 48 h, TMZ 50 μM combined with different concentrations of BMX, 48 hrs, read-out: IC50 of BMZ), 9.1 ± 0.2 µM; in test [2] (HT-29, 72 h, BMX alone, 72 hrs, read-out: IC50 of BMX) it was 2.9 ± 0.2 µM; in test [2] (HT-29, 72 h, TMZ 50 μM combined with different concentrations of BMX, 72 hrs, read-out: IC50 of BMZ), 2.2 ± 0.1 µM. For the same compound, the HDAC isoform selectivity entry in test [3] is recorded as “isoform-selective HDAC8 inhibitor”.

For the compound `Cn1nnc2c(C(N)=O)ncn2c1=O` [TMZ, Temozolomide, reference compound], the IC50 in test [2] (HT-29, 24 h, BMX 5 μM combined with different doses of TMZ, 24 hrs, read-out: IC50 of TMZ) was > 400 µM; in test [2] (HT-29, 24 h, TMZ alone, 24 hrs, read-out: IC50 of TMZ), > 1000 µM; in test [2] (HT-29, 48 h, BMX 5 μM combined with different doses of TMZ, 48 hrs, read-out: IC50 of TMZ) it was 128 ± 18.3 µM; in test [2] (HT-29, 48 h, TMZ alone, 48 hrs, read-out: IC50 of TMZ), 931 ± 47.7 µM; in test [2] (HT-29, 72 h, TMZ alone, 72 hrs, read-out: IC50 of TMZ), 258 ± 20.5 µM; in test [4], 138 ± 22.7 µM.
